# Data published in article PMC12048447, “PANTAX: a phase Ib clinical trial of the efflux pump inhibitor SCO-101 in combination with gemcitabine and nab-paclitaxel in non-resectable or metastatic pancreatic cancer” (Investigational New Drugs, 2025).
# What was measured:
# wild-type PANC-1 cells = assay: Crystal violet combination assay in wild-type PANC-1 cells; assay type: cell-based, human; conditions: 120 h drug incubation
# Experimental: For the crystal violet assay, cells were seeded into 6-well plates at a density of 40,000 cells/well or into 48-wells with 4000 cells/well. One day after seeding, the cells were experimentally treated. Control conditions consisted of either growth medium (‘untreated’) or DMSO diluted in growth medium. All treatments were performed in triplicates. The cells were then kept in the CO2 incubator at 37 °C until staining with crystal violet dye for 10mins and let to dry overnight. The following day crystal violet dye was dissolved using 20% acetic acid and absorbance was measured at 570 nm.
# Experiments with 4 different concentrations of either SCO-101 or paclitaxel and their combinations were applied to test for synergy among these two compounds in both the PANC-1 parental and -Paclitaxel resistant cells. […] The SRPK1 inhibitor SPHINX31 was tested at 0.1; 0.5; 1 and 5 µM. The SRPK1 inhibitor SRPIN was tested at 1; 5; 10 and 50 µM. Both inhibitors were tested in combination with 5, 10, 15 and 20 nM Paclitaxel.
# A) the resistant PANC-1-Pac and B) the sensitive parental PANC-1 cell lines. Cells were either 1) untreated, 2) incubated with 30µM SCO-101, 3) 40µM SCO-101, 4) 4nM paclitaxel, 5) 30µM SCO-101 + 4nM paclitaxel or 6) 40µM SCO-101 + 4nM paclitaxel. Drug incubation for 120 hours was followed by staining with crystal violet.
# [1] = biological target: T1, ABCB1 (MDR1) human ABC transporter (Homo sapiens, UniProt P08183); assay: ABCB1 (MDR1) vesicular uptake inhibition in inside-out membrane vesicles; assay type: biochemical; conditions: vesicular uptake of probe substrate, SCO-101 1.2-300 µM, with and without ATP; read-out: IC50, inhibition of MDR1/ABCB1 efflux transporter
# T1 construct: purchased SOLVO Biotechnology
# T1 sequence (P08183 whole entry): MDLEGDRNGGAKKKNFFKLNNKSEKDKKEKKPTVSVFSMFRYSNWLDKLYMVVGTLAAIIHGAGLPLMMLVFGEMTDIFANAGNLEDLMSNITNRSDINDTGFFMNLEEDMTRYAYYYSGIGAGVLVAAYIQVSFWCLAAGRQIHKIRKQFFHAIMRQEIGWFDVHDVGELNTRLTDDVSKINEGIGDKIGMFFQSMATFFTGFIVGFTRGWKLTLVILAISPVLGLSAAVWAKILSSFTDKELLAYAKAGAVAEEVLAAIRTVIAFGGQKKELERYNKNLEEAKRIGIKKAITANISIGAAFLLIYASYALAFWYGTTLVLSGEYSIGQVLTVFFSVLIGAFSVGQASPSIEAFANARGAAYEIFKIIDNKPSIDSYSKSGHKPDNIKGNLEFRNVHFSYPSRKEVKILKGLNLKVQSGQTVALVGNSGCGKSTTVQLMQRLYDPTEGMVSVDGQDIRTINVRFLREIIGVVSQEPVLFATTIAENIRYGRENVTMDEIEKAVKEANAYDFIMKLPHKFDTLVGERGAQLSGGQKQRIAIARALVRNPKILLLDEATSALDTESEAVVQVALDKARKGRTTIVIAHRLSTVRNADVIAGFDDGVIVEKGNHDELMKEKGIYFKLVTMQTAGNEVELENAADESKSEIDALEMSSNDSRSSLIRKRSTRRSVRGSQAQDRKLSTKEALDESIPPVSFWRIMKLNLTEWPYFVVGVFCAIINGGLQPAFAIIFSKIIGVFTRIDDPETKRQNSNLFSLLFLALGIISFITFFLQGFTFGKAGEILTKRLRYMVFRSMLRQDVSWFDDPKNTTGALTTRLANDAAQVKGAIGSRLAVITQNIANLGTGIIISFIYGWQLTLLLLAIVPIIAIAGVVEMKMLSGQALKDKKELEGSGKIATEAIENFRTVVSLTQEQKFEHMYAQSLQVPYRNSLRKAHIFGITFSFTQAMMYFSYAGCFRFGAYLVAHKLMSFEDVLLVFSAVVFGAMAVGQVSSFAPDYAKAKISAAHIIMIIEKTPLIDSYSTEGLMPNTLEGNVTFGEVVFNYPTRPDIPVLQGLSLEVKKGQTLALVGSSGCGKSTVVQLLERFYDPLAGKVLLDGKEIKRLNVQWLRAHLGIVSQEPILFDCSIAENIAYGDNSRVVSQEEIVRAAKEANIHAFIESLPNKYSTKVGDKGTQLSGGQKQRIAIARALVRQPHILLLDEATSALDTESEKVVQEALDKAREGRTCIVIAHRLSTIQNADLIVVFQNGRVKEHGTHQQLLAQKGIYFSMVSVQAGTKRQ
# Experimental: Analysis of SCO-101 ABCB1 (MDR1) efflux transporter inhibition was evaluated by measuring the vesicular uptake of a probe substrate into inside-out membrane vesicles expressing ABCB1 (MDR1) human ABC transporter in the absence and presence of SCO-101 (1.2 –300 μM) with and without ATP. Transporter inhibition was observed as reduced level of vesicular uptake of the probe substrate in the presence of ATP. ABCB1 (MDR1) assay was conducted with reagents from PredivezTM VT Reagent Kit for MDR1/P-gp (SOLVO Biotechnology). Assays were conducted as per the manufacturer’s recommendation. The inhibition was evaluated by measuring the vesicular uptake of a probe substrate into inside-out membrane vesicles. Assays were conducted with or without ATP and in the absence and presence of SCO-101 at the indicated concentrations (1.2 –300μM).
# [2] = test system: patients with non-resectable or metastatic PDAC; assay: PANTAX phase Ib: efficacy (RECIST v1.1, PFS, OS, Ca 19-9); assay type: in vivo, human; conditions: SCO-101 with Gem and Nab
# From the text: The PANTAX trial was a prospective, international multicenter phase Ib open-label, non-randomized, dose-escalation study aiming to determine the MTD, safety, and tolerability of SCO-101 when combined with Gem and Nab in patients with non-resectable or metastatic PDAC (Protocol nr. SCO101-002, EudraCT nr. 2020–002627-11; ClinicalTrials.gov identifier NCT04652206). Furthermore, the study aimed to establish the pharmacokinetic profile of SCO-101 in combination with Gem and Nab. ORR, clinical benefit rate (CBR), median progression free survival (mPFS), and mOS were included as secondary end points.
# Tumor evaluation by CT and MRI scans were done every 8 weeks. Response was determined according to RECIST v 1.1 [21] by local assessment. ORR was determined as the percentage of evaluable patients experiencing a complete response (CR) or partial response (PR). CBR was determined as the percentage of evaluable patients experiencing response or stable disease (SD) for over 16 weeks. Date of study inclusion was the index date. For assessment of PFS, the date of PD was the date of imaging showing progression or date of last treatment in patients with deteriorating clinical condition. Patients not followed until progression were censored for PFS at the date of last follow-up. One patient was lost to follow-up for survival and was censored from OS analysis on the date of last visit. End of study was 6 months after the last patients last treatment visit.
smiles,measurement,setting,value
O=C(Nc1cc(C(F)(F)F)cc(C(F)(F)F)c1)Nc1ccc(Br)cc1-c1nnn[nH]1 [SCO-101],combination effect of SCO-101 and paclitaxel,wild-type PANC-1 cells,no combination effect
same,IC50,[1],16.1 µM
same,patients with reduction of serum Ca 19-9 of at least 25%,[2]; 15 patients with elevated Ca 19-9 at treatment initiation,53%
same,objective response rate (ORR),[2]; 15 evaluable patients,6.7%
same,median progression-free survival (mPFS),[2]; CI 1.7-9.2 months,3.3 months
same,median overall survival (mOS),[2]; CI 5.7-16 months,9.5 months
same,clinical benefit rate (CBR),"[2]; response or SD over 16 weeks, 15 evaluable patients",33%
